In ChEMBL document CHEMBL1201862, “PubChem BioAssay data set” (2004):
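Compound exposure: 48 hours, 5 concentrations, 96-well plates. At the GI50, growth is halved.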 The source made the active and inactive calls. Rule as the data show it: active = GI50 up to about 1.1 µM and inactive = higher.

Columns and labels:
Experiment in all cases: growth of human tumour cells (NCI), 48 h
[1] = system: 786-0
[2] = system: A498
[3] = system: A549
[4] = system: BT-549
[5] = system: CAKI-1
[6] = system: CCRF-CEM
[7] = system: COLO 205
[8] = system: DU-145
[9] = system: EKVX
[10] = system: HCC 2998
[11] = system: HCT-116
[12] = system: HCT-15
[13] = system: HOP-62
[14] = system: IGROV-1
[15] = system: K562
[16] = system: M14
[17] = system: MCF7
[18] = system: MDA-MB-231
[19] = system: MDA-MB-435
[20] = system: MDA-N
[21] = system: MOLT-4
[22] = system: Malme-3M
[23] = system: NCI-H23
[24] = system: NCI-H460
[25] = system: NCI-H522
[26] = system: OVCAR-3
[27] = system: OVCAR-4
[28] = system: OVCAR-5
[29] = system: PC-3
[30] = system: RXF 393
[31] = system: SF-295
[32] = system: SF-539
[33] = system: SK-MEL-2
[34] = system: SK-MEL-5
[35] = system: SK-OV-3
[36] = system: SN12C
[37] = system: SR
[38] = system: T47D
[39] = system: TK-10
[40] = system: U-251
[41] = system: UACC-257
[42] = system: UACC-62
[43] = system: HL-60
[44] = system: HOP-92
[45] = system: HT-29
[46] = system: KM12
[47] = system: LOX IMVI
[48] = system: NCI-H226
[49] = system: NCI/ADR-RES
[50] = system: OVCAR-8
[51] = system: RPMI-8226
[52] = system: SF-268
[53] = system: SW-620
[54] = system: UO-31

Measured: GI50

CCCc1n[nH]c(=O)n1N1C(=O)C=CC1=O
> 100 µM: [12]
inactive: [1] > 100 µM | [2] > 100 µM | [3] > 100 µM | [4] 30.5 µM | [5] > 100 µM | [6] > 100 µM | [7] > 100 µM | [8] > 100 µM | [9] > 100 µM | [10] > 100 µM | [11] > 100 µM | [13] > 100 µM | [14] > 100 µM | [15] > 100 µM | [16] > 100 µM | [17] > 100 µM | [18] > 100 µM | [19] > 100 µM | [20] > 100 µM | [21] > 100 µM | [22] > 100 µM | [23] > 100 µM | [24] > 100 µM | [25] > 100 µM | [26] > 100 µM | [27] > 100 µM | [28] > 100 µM | [29] > 100 µM | [30] > 100 µM | [31] > 100 µM | [32] > 100 µM | [33] > 100 µM | [34] > 100 µM | [35] > 100 µM | [36] > 100 µM | [37] > 100 µM | [38] > 100 µM | [39] > 100 µM | [40] > 100 µM | [41] > 100 µM | [42] > 100 µM

Nc1ccc2c(c1)C1Oc3ccccc3CC1CO2 (stereo not drawn)
inactive: [1] > 100 µM | [2] > 100 µM | [3] > 100 µM | [4] 74.6 µM | [5] > 100 µM | [6] > 100 µM | [7] > 100 µM | [8] > 100 µM | [9] > 100 µM | [10] > 100 µM | [11] > 100 µM | [43] > 100 µM | [13] > 100 µM | [44] > 100 µM | [45] > 100 µM | [14] > 100 µM | [15] > 100 µM | [46] > 100 µM | [47] > 100 µM | [16] > 100 µM | [17] > 100 µM | [18] > 100 µM | [19] > 100 µM | [20] > 100 µM | [21] > 100 µM | [22] > 100 µM | [48] > 100 µM | [23] > 100 µM | [25] > 100 µM | [49] > 100 µM | [26] > 100 µM | [28] > 100 µM | [50] > 100 µM | [29] > 100 µM | [51] > 100 µM | [52] > 100 µM | [31] > 100 µM | [32] > 100 µM | [33] > 100 µM | [34] > 100 µM | [35] > 100 µM | [36] > 100 µM | [37] > 100 µM | [53] > 100 µM | [38] 76 µM | [39] > 100 µM | [40] > 100 µM | [41] > 100 µM | [42] > 100 µM | [54] > 100 µM
15.7 µM: [12]
